Results published in PubChem BioAssay AID328 (DTP/NCI, 2004).
Where “and” joins values, the source holds several entries; their conditions need not be identical. Identical values can stand only once. Inconclusive results and toxic doses are left out. How the source made its calls: active means survival T/C of 150% or more; inactive means T/C below 125% in these data.

System: BDF1 mice, P388 leukemia ip, median survival T/C
Assay: NCI In Vivo Anticancer Drug Screen. Data for tumor model P388 Leukemia (intraperitoneal) in B6D2F1 (BDF1) mice
Conditions: endpoint: median survival time, higher = longer survival
Outline: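 Each value expresses how treatment altered survival: treated-mouse outcome over vehicle-mouse outcome, both groups bearing the transplanted tumour.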

[1] = dose: 100.0 mg/kg/injection, schedule: Q04DX003 (ip), vehicle: Klucel (hydroxypropylcellulose) (HPC)
[2] = dose: 200.0 mg/kg/injection, schedule: Q04DX003 (ip), vehicle: Klucel (hydroxypropylcellulose) (HPC)
[3] = dose: 400.0 mg/kg/injection, schedule: Q04DX003 (ip), vehicle: Klucel (hydroxypropylcellulose) (HPC)
[4] = dose: 50.0 mg/kg/injection, schedule: Q01DX009 (ip), vehicle: saline with Tween-80
[5] = dose: 100.0 mg/kg/injection, schedule: Q01DX009 (ip), vehicle: saline with Tween-80
[6] = dose: 100.0 mg/kg/injection, schedule: Q04DX003 (ip), vehicle: saline with Tween-80
[7] = dose: 200.0 mg/kg/injection, schedule: Q04DX003 (ip), vehicle: saline with Tween-80
[8] = dose: 400.0 mg/kg/injection, schedule: Q04DX003 (ip), vehicle: saline with Tween-80
[9] = dose: 100.0 mg/kg/injection, schedule: Q01DX009 (ip), vehicle: Klucel (hydroxypropylcellulose) (HPC)
[10] = dose: 200.0 mg/kg/injection, schedule: Q01DX009 (ip), vehicle: Klucel (hydroxypropylcellulose) (HPC)
[11] = dose: 25.0 mg/kg/injection, schedule: Q04DX003 (ip), vehicle: saline
[12] = dose: 50.0 mg/kg/injection, schedule: Q01DX009 (ip), vehicle: saline
[13] = dose: 50.0 mg/kg/injection, schedule: Q04DX003 (ip), vehicle: saline
[14] = dose: 100.0 mg/kg/injection, schedule: Q01DX009 (ip), vehicle: saline
[15] = dose: 100.0 mg/kg/injection, schedule: Q04DX003 (ip), vehicle: saline
[16] = dose: 200.0 mg/kg/injection, schedule: Q01DX009 (ip), vehicle: saline
[17] = dose: 200.0 mg/kg/injection, schedule: Q04DX003 (ip), vehicle: saline
[18] = dose: 200.0 mg/kg/injection, schedule: Q01DX009 (ip), vehicle: saline with Tween-80
[19] = dose: 25.0 mg/kg/injection, schedule: Q01DX009 (ip), vehicle: saline
[20] = dose: 400.0 mg/kg/injection, schedule: Q01DX009 (ip), vehicle: saline
[21] = dose: 25.0 mg/kg/injection, schedule: Q01DX009 (ip), vehicle: saline with Tween-80

Measured: T/C

CC(=O)OC1CCC2(C)C(CCC3(C)C2CC=C2C4C(C)C(C)CCC4(C)CCC23C)C1(C)C (configuration not stated)
inactive: [1] 100 % of control | [2] 100 % of control | [3] 90 % of control

C=CCc1ccccc1CNC(C)(C)CO
inactive: [4] 103 % of control | [5] 103 % of control

OC(O)C(F)(F)F
inactive: dose: 15.0 mg/kg/injection, schedule: Q04DX003 (ip), vehicle: saline with Tween-80 100 % of control | dose: 30.0 mg/kg/injection, schedule: Q04DX003 (ip), vehicle: saline with Tween-80 100 % of control | dose: 60.0 mg/kg/injection, schedule: Q04DX003 (ip), vehicle: saline with Tween-80 95 % of control | [6] 104 % of control | [7] 113 % of control | [8] 104 % of control

CS/C(N)=N\S(=O)(=O)c1ccc(NC(C)=O)cc1
inactive: [6] 95 % of control | [7] 119 % of control | [8] 100 % of control

S=C1NC(c2ccccc2)NC(c2ccccc2)S1 (configuration not stated)
inactive: dose: 100.0 mg/kg/injection, schedule: Q01DX001 (ip), vehicle: Klucel (hydroxypropylcellulose) (HPC) 95 % of control | [9] 111 % of control | [1] 91 % of control and 100 % of control | dose: 200.0 mg/kg/injection, schedule: Q01DX001 (ip), vehicle: Klucel (hydroxypropylcellulose) (HPC) 95 % of control | [10] 111 % of control | [2] 91 % of control and 108 % of control | dose: 400.0 mg/kg/injection, schedule: Q01DX009 (ip), vehicle: Klucel (hydroxypropylcellulose) (HPC) 111 % of control | [3] 87 % of control and 108 % of control

O=C(c1ccccc1)c1c2ccccc2c(C(=O)c2ccccc2)c2ccccc12
inactive: [9] 105 % of control | [1] 91 % of control | [10] 100 % of control | [2] 100 % of control | [3] 95 % of control

CC1(c2cccs2)C(=O)N(Cl)C(=O)N1Cl (configuration not stated)
inactive: dose: 12.5 mg/kg/injection, schedule: Q04DX003 (ip), vehicle: saline 100 % of control | [11] 100 % of control | [12] 122 % of control | [13] 118 % of control | [14] 119 % of control | [15] 107 % of control and 109 % of control and 118 % of control | [16] 120 % of control | [17] 118 % of control

COC(OC)c1[nH]c(=S)[nH]c(=O)c1Cc1cccc2ccccc12
inactive: [5] 111 % of control | [6] 100 % of control | [18] 92 % of control | [7] 91 % of control | dose: 400.0 mg/kg/injection, schedule: Q01DX009 (ip), vehicle: saline with Tween-80 88 % of control | [8] 87 % of control

O=[N+]([O-])c1ccc(N/N=C2/C3CCC(C3)C2C(O)(C(F)(F)F)C(F)(F)F)c([N+](=O)[O-])c1 (configuration not stated)
inactive: [6] 90 % of control | [7] 90 % of control | [8] 95 % of control

CCCCCCCCCCCCCC[N+]1([O-])CCCC1
inactive: dose: 12.5 mg/kg/injection, schedule: Q01DX009 (ip), vehicle: saline 108 % of control | [19] 100 % of control | [12] 95 % of control

O=C1c2ccccc2C(=O)c2c(O)c(N3CCCCC3)cc(O)c21
inactive: [12] 93 % of control | [14] 97 % of control | [6] 98 % of control | [16] 95 % of control | [7] 109 % of control | [20] 93 % of control | [8] 106 % of control

N#CC1(Nc2ccccc2)CCCCC1
inactive: [21] 115 % of control | dose: 50.0 mg/kg/injection, schedule: Q04DX003 (ip), vehicle: saline with Tween-80 109 % of control | [6] 109 % of control

CCCCCCCCN1CCCNCC1
inactive: [19] 100 % of control

C/C(N=Nc1ccccc1)=N\Nc1cccc(C(F)(F)F)c1
inactive: dose: 50.0 mg/kg/injection, schedule: Q01DX009 (ip), vehicle: Klucel (hydroxypropylcellulose) (HPC) 100 % of control | [9] 105 % of control | [1] 104 % of control | [10] 100 % of control | [2] 104 % of control | [3] 108 % of control

COC(=O)C[C@](O)(CCC(C)C)C(=O)O[C@@H]1C(OC)=C[C@]23CCCN2CCc2cc4c(cc2[C@H]13)OCO4
inactive: dose: 0.06 mg/kg/injection, schedule: Q01DX010 (ip), vehicle: saline 118 % of control | dose: 0.13 mg/kg/injection, schedule: Q01DX010 (ip), vehicle: saline 109 % of control | dose: 0.25 mg/kg/injection, schedule: Q01DX010 (ip), vehicle: saline 118 % of control
active: dose: 1.0 mg/kg/injection, schedule: Q01DX010 (ip), vehicle: saline 155 % of control | dose: 2.0 mg/kg/injection, schedule: Q01DX010 (ip), vehicle: saline 180 % of control

C[n+]1c(-c2ccc(Cl)cc2Cl)c2cc(N)ccc2c2ccccc21
inactive: dose: 0.09 mg/kg/injection, schedule: Q01DX009 (ip), vehicle: water 98 % of control | dose: 0.19 mg/kg/injection, schedule: Q01DX009 (ip), vehicle: water 90 % of control | dose: 0.39 mg/kg/injection, schedule: Q01DX009 (ip), vehicle: water 98 % of control | dose: 0.78 mg/kg/injection, schedule: Q01DX009 (ip), vehicle: water 98 % of control | dose: 1.56 mg/kg/injection, schedule: Q01DX009 (ip), vehicle: water 102 % of control and 120 % of control | dose: 3.12 mg/kg/injection, schedule: Q01DX009 (ip), vehicle: water 98 % of control and 112 % of control

CCCP(CCC)c1ccccc1
inactive: dose: 25.0 mg/kg/injection, schedule: Q01DX009 (sc), vehicle: olive oil, sesame oil, peanut oil 108 % of control | dose: 50.0 mg/kg/injection, schedule: Q01DX009 (sc), vehicle: olive oil, sesame oil, peanut oil 95 % of control | dose: 100.0 mg/kg/injection, schedule: Q01DX009 (sc), vehicle: olive oil, sesame oil, peanut oil 95 % of control | dose: 100.0 mg/kg/injection, schedule: Q04DX003 (sc), vehicle: olive oil, sesame oil, peanut oil 96 % of control | dose: 200.0 mg/kg/injection, schedule: Q04DX003 (sc), vehicle: olive oil, sesame oil, peanut oil 96 % of control | dose: 400.0 mg/kg/injection, schedule: Q01DX009 (sc), vehicle: olive oil, sesame oil, peanut oil 92 % of control | dose: 400.0 mg/kg/injection, schedule: Q04DX003 (sc), vehicle: olive oil, sesame oil, peanut oil 123 % of control

COC(CNC(=O)Nc1cccnc1)[CH2][Hg][Cl] (configuration not stated)
inactive: dose: 12.5 mg/kg/injection, schedule: Q01DX009 (ip), vehicle: saline with Tween-80 90 % of control | [21] 104 % of control | [4] 100 % of control

O=C(c1ccccc1)N1CCC(CCO)C(O)C1Cc1c[nH]c2ccccc12 (configuration not stated)
inactive: [19] 100 % of control | [12] 96 % of control | [13] 96 % of control | [14] 86 % of control | [15] 100 % of control | [16] 108 % of control | [17] 96 % of control | [20] 110 % of control | dose: 400.0 mg/kg/injection, schedule: Q04DX003 (ip), vehicle: saline 98 % of control

CCOC(=O)c1ccc(OC(=O)Nc2ccccc2OC)cc1
inactive: [6] 91 % of control | [7] 108 % of control | [8] 108 % of control

C=CCC(B1OCCO1)B1OCCO1
inactive: [11] 95 % of control | [13] 90 % of control | [15] 100 % of control

O=C(Nc1ccccc1)OCc1ccc(OCc2ccccc2)cc1
inactive: [4] 89 % of control | [5] 122 % of control | [18] 105 % of control

Cc1cc2nccc(/C=C/c3ccc(N(C)C)cc3)c2cc1C
inactive: [4] 112 % of control | [5] 120 % of control | [18] 98 % of control

CC[C@]1(O)C[C@H](OC2CC(N(C)C)C(OC3CC(O)C(O)C(C)O3)C(C)O2)c2c(cc3c(c2O)C(=O)c2c(O)ccc(O)c2C3=O)[C@H]1C(=O)OC (some centres not stated)
active: dose: 0.4 mg/kg/injection, schedule: Q01DX009 (ip), vehicle: Klucel (hydroxypropylcellulose) (HPC) 171 % of control | dose: 0.8 mg/kg/injection, schedule: Q01DX009 (ip), vehicle: Klucel (hydroxypropylcellulose) (HPC) 158 % of control and 165 % of control | dose: 1.6 mg/kg/injection, schedule: Q01DX009 (ip), vehicle: Klucel (hydroxypropylcellulose) (HPC) 201 % of control and 222 % of control | dose: 3.46 mg/kg/injection, schedule: Q04DX003 (ip), vehicle: other 185 % of control | dose: 5.76 mg/kg/injection, schedule: Q04DX003 (ip), vehicle: other 217 % of control
inactive: dose: 9.6 mg/kg/injection, schedule: Q04DX003 (ip), vehicle: other 105 % of control
